Experimental data published in patent US20120034193A1, “TREATMENT OF NEUROTROPHIC FACTOR MEDIATED DISORDERS” (priority 2009, published 2012).

How the values were obtained:
Experiment in all cases: Binding assay
Details in all cases: smilagenin 1 μM
Prostanoid EP2 = Prostanoid EP2 (Homo sapiens, UniProt P43116)
How it was run: (§1)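 Homogenate + radioligand (known conc.) ± compound (1 μM); free label removed, specific binding counted. Result = % inhibition vs no-compound control. Receptor source, incubation and radioligand assay-specific.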

Bradykinin B1 = Bradykinin B1 (Homo sapiens, UniProt P46663)
How it was run: as §1

Bradykinin B2 = Bradykinin B2 (Homo sapiens, UniProt P30411)
How it was run: as §1

[1] = target: Calcitonin Gene-Related Peptide CGRP1 (Homo sapiens, UniProt O60894+Q16602)
How it was run: as §1

[2] = target: T1, Transporter, 5-hydroxytryptamine (SERT) (Homo sapiens, UniProt P31645)
T1 construct: host or cells: tissue or cell homogenate, not specified
How it was run: as §1

[3] = target: Leukotriene, Cysteinyl CysLT2 (Homo sapiens, UniProt Q9NS75)
How it was run: as §1

[4] = target: Cholecystokinin CCK1 (CCKA) (Homo sapiens, UniProt P32238)
How it was run: as §1

Calcium Channel N-Type = Calcium Channel N-Type (Rattus norvegicus, UniProt Q02294)
How it was run: as §1

Neurotensin NT1 = Neurotensin NT1 (Homo sapiens, UniProt P30989)
How it was run: as §1

[5] = target: 5-Hydroxytryptamine, 5-HT1B (Rattus norvegicus, UniProt P28564)
How it was run: as §1

Neuropeptide Y Y1 = Neuropeptide Y Y1 (Homo sapiens, UniProt P25929)
How it was run: as §1

Opiate κ (OP2, KOP) = Opiate κ (OP2, KOP) (Homo sapiens, UniProt P41145)
How it was run: as §1

[6] = target: 5-Hydroxytryptamine, 5-HT6 (Homo sapiens, UniProt P50406)
How it was run: as §1

Endothelin ETB = Endothelin ETB (Homo sapiens, UniProt P24530)
How it was run: as §1

Sigma σ1 = Sigma σ1 (Homo sapiens, UniProt Q99720)
How it was run: as §1

Prostanoid EP4 = Prostanoid EP4 (Homo sapiens, UniProt P35408)
How it was run: as §1

Leukotriene, BLT (LTB4) = Leukotriene, BLT (LTB4) (Homo sapiens, UniProt Q15722)
How it was run: as §1

Dopamine D2S = Dopamine D2S (Homo sapiens, UniProt P14416)
How it was run: as §1

Tachykinin NK1 = Tachykinin NK1 (Homo sapiens, UniProt P25103)
How it was run: as §1

Muscarinic M3 = target: T2, Muscarinic M3 (Homo sapiens, UniProt P20309)
T2 construct: host or cells: tissue or cell homogenate, not specified
How it was run: as §1

Melanocortin MC1 = Melanocortin MC1 (Homo sapiens, UniProt Q01726)
How it was run: as §1

Progesterone PR-B = Progesterone PR-B (Homo sapiens, UniProt P06401)
How it was run: as §1

Melanocortin MC5 = Melanocortin MC5 (Homo sapiens, UniProt P33032)
How it was run: as §1

Opiate δ (OP1, DOP) = Opiate δ (OP1, DOP) (Homo sapiens, UniProt P41143)
How it was run: as §1

Neuromedin U MNU2 = Neuromedin U MNU2 (Homo sapiens, UniProt Q9GZQ4)
How it was run: as §1

Galanin GAL1 = target: T3, Galanin GAL1 (Homo sapiens, UniProt P47211)
T3 construct: host or cells: tissue or cell homogenate (not specified)
How it was run: as §1

Potassium Channel HERG = Potassium Channel HERG (Homo sapiens, UniProt Q12809)
How it was run: as §1

GABAB1B = target: T4, GABAB1B (Homo sapiens, UniProt Q9UBS5)
T4 construct: host or cells: tissue or cell homogenate (not specified)
How it was run: as §1

Adrenergic α1A = Adrenergic α1A (Rattus norvegicus, UniProt P43140)
How it was run: as §1

[7] = target: T5, Epidermal Growth Factor (EGF) (Homo sapiens, UniProt P00533)
T5 construct: host or cells: tissue or cell homogenate (not specified)
How it was run: as §1

Adrenergic α2A = Adrenergic α2A (Homo sapiens, UniProt P08913)
How it was run: as §1

Sigma σ2 = Sigma σ2 (Rattus norvegicus, UniProt Q5U3Y7)
How it was run: as §1

Vanilloid = target: T6, Vanilloid (Rattus norvegicus, UniProt O35433)
T6 construct: host or cells: tissue or cell homogenate, not specified
How it was run: as §1

Colchicine = tested on: Colchicine
How it was run: as §1

Somatostatin sst4 = Somatostatin sst4 (Homo sapiens, UniProt P31391)
How it was run: as §1

Dopamine D5 = Dopamine D5 (Homo sapiens, UniProt P21918)
How it was run: as §1

Sequence of Opiate κ (OP2, KOP) (P41145 whole entry): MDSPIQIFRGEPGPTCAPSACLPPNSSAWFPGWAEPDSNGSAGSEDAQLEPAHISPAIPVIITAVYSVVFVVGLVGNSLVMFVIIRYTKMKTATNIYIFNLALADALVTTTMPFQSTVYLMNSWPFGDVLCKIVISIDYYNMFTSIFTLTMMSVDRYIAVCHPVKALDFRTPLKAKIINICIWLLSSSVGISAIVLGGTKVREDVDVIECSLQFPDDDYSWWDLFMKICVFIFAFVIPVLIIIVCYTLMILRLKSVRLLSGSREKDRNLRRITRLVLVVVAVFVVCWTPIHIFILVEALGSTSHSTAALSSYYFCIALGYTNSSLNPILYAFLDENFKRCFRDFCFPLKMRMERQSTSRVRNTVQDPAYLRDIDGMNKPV
Sequence of Melanocortin MC5 (P33032 whole entry): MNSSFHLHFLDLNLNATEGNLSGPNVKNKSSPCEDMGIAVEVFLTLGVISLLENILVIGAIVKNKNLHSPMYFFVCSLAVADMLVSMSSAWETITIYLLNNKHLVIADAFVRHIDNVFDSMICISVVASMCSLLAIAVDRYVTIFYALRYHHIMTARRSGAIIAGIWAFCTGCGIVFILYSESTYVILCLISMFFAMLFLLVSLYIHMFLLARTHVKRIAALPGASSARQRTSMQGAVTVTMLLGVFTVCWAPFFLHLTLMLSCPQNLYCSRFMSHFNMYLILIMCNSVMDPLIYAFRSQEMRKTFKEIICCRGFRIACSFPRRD
Sequence of Melanocortin MC1 (Q01726 whole entry): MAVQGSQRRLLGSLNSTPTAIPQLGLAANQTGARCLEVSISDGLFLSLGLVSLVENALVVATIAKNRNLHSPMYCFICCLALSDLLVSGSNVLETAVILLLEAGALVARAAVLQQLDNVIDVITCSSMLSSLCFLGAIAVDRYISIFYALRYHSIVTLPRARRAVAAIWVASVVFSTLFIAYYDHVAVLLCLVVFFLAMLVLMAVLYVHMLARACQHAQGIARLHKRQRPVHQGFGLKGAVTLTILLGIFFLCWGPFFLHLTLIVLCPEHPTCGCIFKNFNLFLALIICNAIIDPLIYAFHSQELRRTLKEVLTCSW
T1 sequence (P31645 whole entry): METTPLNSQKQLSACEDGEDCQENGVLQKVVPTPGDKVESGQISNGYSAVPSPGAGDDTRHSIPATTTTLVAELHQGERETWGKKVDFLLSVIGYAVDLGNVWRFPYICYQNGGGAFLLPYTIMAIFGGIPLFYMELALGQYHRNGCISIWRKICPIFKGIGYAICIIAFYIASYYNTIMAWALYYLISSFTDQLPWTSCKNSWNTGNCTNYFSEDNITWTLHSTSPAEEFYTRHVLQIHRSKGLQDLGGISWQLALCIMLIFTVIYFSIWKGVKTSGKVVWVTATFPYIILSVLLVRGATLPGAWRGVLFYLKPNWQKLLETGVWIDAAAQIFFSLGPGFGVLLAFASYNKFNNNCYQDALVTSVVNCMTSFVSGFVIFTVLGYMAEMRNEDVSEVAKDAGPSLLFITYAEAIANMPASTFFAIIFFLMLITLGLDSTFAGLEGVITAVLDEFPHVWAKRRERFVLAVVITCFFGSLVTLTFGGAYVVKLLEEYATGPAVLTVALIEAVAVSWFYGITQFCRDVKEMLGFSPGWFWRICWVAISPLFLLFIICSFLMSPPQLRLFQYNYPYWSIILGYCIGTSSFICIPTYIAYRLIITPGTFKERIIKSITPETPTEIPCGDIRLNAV
Sequence of Leukotriene, BLT (LTB4) (Q15722 whole entry): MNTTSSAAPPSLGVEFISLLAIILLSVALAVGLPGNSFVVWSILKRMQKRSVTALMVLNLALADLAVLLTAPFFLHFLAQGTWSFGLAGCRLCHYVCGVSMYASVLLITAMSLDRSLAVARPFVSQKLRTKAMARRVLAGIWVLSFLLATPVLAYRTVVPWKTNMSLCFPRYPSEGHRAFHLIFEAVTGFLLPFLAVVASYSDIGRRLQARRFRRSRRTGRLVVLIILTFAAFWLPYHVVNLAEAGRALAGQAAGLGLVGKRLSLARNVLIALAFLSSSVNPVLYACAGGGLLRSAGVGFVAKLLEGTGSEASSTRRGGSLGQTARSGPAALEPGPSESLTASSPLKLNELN
Sequence of Neurotensin NT1 (P30989 whole entry): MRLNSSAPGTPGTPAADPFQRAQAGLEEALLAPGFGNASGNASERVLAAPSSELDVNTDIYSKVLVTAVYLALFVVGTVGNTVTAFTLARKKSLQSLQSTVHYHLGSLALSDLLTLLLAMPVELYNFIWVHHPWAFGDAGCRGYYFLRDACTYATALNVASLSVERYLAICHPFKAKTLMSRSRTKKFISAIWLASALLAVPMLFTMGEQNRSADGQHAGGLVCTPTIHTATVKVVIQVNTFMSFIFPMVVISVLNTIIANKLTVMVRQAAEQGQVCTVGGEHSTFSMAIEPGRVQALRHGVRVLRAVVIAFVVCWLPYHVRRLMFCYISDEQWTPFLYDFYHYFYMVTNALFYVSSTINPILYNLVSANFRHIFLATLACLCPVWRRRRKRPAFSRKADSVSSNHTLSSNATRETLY
Sequence of Progesterone PR-B (P06401 whole entry): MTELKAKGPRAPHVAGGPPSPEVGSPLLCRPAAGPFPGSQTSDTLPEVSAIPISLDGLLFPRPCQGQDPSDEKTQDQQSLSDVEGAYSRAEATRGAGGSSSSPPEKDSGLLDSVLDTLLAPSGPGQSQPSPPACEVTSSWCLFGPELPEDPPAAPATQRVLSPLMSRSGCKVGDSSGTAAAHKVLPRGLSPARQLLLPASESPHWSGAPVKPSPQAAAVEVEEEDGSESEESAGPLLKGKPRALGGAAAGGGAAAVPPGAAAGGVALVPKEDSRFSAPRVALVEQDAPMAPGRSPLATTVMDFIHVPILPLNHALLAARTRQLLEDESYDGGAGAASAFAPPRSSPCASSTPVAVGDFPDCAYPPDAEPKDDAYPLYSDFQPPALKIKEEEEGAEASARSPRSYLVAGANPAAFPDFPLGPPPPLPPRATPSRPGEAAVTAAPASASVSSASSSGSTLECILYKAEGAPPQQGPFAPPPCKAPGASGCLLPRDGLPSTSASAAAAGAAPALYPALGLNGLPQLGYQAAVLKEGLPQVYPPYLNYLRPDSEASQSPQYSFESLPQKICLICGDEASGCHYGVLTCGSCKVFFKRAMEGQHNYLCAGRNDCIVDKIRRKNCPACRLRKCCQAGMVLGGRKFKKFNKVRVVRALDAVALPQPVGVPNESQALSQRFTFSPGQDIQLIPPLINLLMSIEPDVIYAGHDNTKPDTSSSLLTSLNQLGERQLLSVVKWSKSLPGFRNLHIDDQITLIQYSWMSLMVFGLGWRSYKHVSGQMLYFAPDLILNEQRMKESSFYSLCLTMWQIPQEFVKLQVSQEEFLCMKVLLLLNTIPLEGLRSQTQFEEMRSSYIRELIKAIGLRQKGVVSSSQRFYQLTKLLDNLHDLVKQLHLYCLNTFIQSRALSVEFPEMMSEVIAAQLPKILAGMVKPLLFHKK
T3 sequence (P47211 whole entry): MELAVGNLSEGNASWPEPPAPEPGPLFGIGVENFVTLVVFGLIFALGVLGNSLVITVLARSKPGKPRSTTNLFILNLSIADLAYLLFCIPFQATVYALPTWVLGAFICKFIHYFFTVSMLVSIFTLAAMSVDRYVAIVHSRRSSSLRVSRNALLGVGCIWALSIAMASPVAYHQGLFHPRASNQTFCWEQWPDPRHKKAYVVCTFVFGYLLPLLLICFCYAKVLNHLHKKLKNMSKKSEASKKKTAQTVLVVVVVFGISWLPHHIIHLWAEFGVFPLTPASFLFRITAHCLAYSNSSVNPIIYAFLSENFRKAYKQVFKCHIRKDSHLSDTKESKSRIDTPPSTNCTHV
Sequence of Calcitonin Gene-Related Peptide CGRP1 (Q16602 23-461): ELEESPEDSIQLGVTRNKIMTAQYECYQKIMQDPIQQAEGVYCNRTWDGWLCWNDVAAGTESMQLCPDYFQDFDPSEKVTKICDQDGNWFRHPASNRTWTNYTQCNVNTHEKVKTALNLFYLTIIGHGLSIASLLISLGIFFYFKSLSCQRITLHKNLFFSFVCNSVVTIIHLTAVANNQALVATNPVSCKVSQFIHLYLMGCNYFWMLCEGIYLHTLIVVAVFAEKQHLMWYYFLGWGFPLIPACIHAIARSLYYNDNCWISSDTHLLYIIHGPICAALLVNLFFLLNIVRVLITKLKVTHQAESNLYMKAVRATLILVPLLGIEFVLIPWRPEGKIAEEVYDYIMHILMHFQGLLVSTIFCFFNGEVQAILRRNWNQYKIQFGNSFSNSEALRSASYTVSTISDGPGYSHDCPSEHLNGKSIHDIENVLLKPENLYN
Sequence of Calcitonin Gene-Related Peptide CGRP1 (O60894 27-148 partner): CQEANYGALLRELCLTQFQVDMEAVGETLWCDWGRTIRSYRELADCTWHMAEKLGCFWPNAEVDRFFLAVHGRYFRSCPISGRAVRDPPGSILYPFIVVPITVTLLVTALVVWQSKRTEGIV
Sequence of Dopamine D5 (P21918 whole entry): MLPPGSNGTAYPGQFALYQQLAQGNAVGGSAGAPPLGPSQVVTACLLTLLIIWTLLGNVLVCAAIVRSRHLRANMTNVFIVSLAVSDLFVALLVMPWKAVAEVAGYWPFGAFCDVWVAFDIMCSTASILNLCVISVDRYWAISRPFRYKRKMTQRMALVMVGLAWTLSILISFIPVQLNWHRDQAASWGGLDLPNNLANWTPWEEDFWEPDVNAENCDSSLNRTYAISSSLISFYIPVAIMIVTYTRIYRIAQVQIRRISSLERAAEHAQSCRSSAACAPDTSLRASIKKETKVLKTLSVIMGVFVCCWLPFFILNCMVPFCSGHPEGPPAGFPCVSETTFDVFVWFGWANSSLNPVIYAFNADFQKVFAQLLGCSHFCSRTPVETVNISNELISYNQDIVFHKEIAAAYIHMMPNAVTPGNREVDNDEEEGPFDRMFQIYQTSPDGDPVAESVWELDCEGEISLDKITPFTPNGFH
Sequence of Sigma σ2 (Q5U3Y7 whole entry): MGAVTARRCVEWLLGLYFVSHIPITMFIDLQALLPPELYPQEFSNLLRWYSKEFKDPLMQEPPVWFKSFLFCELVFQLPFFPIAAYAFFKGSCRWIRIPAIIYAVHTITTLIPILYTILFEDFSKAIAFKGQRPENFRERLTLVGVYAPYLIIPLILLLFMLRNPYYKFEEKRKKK

For `C[C@@H]1CC[C@@]2(OC1)O[C@H]1C[C@H]3[C@@H]4CC[C@@H]5C[C@@H](O)CC[C@]5(C)[C@H]4CC[C@]3(C)[C@H]1[C@@H]2C` [Smilagenin, smilagenin], the “Effect (%)” value (Prostanoid EP2) was “NS (NS = No significant response. Significance was taken as ≧30% stimulation or inhibition)”, the “Effect (%)” value (Bradykinin B1) was “NS (NS = No significant response. Significance was taken as ≧30% stimulation or inhibition)” and the “Effect (%)” value (Bradykinin B2) was “NS (NS = No significant response. Significance was taken as ≧30% stimulation or inhibition)”. For the same compound, the “Effect (%)” value [1] was “NS (NS = No significant response. Significance was taken as ≧30% stimulation or inhibition)”, the “Effect (%)” value [2] was “NS (NS = No significant response. Significance was taken as ≧30% stimulation or inhibition)” and the “Effect (%)” value [3] was “NS (NS = No significant response. Significance was taken as ≧30% stimulation or inhibition)”. For the same compound, the “Effect (%)” value [4] was “NS (NS = No significant response. Significance was taken as ≧30% stimulation or inhibition)”, the “Effect (%)” value (Calcium Channel N-Type) was “NS (NS = No significant response. Significance was taken as ≧30% stimulation or inhibition)” and the “Effect (%)” value (Neurotensin NT1) was “NS (NS = No significant response. Significance was taken as ≧30% stimulation or inhibition)”. The “Effect (%)” value [5] was “NS (NS = No significant response. Significance was taken as ≧30% stimulation or inhibition)”, the “Effect (%)” value (Neuropeptide Y Y1) was “NS (NS = No significant response. Significance was taken as ≧30% stimulation or inhibition)” and the “Effect (%)” value (Opiate κ (OP2, KOP)) was “NS (NS = No significant response. Significance was taken as ≧30% stimulation or inhibition)”. For the same compound, the “Effect (%)” value [6] was “NS (NS = No significant response. Significance was taken as ≧30% stimulation or inhibition)”, the “Effect (%)” value (Endothelin ETB) was “NS (NS = No significant response. Significance was taken as ≧30% stimulation or inhibition)” and the “Effect (%)” value (Sigma σ1) was “NS (NS = No significant response. Significance was taken as ≧30% stimulation or inhibition)”. For the same compound, the “Effect (%)” value (Prostanoid EP4) was “NS (NS = No significant response. Significance was taken as ≧30% stimulation or inhibition)”, the “Effect (%)” value (Leukotriene, BLT (LTB4)) was “NS (NS = No significant response. Significance was taken as ≧30% stimulation or inhibition)” and the “Effect (%)” value (Dopamine D2S) was “NS (NS = No significant response. Significance was taken as ≧30% stimulation or inhibition)”. For the same compound, the “Effect (%)” value (Tachykinin NK1) was “NS (NS = No significant response. Significance was taken as ≧30% stimulation or inhibition)”, the “Effect (%)” value (Muscarinic M3) was “NS (NS = No significant response. Significance was taken as ≧30% stimulation or inhibition)” and the “Effect (%)” value (Melanocortin MC1) was “NS (NS = No significant response. Significance was taken as ≧30% stimulation or inhibition)”. The “Effect (%)” value (Progesterone PR-B) was “NS (NS = No significant response. Significance was taken as ≧30% stimulation or inhibition)”, the “Effect (%)” value (Melanocortin MC5) was “NS (NS = No significant response. Significance was taken as ≧30% stimulation or inhibition)” and the “Effect (%)” value (Opiate δ (OP1, DOP)) was “NS (NS = No significant response. Significance was taken as ≧30% stimulation or inhibition)”. The “Effect (%)” value (Neuromedin U MNU2) was “NS (NS = No significant response. Significance was taken as ≧30% stimulation or inhibition)”, the “Effect (%)” value (Galanin GAL1) was “NS (NS = No significant response. Significance was taken as ≧30% stimulation or inhibition)” and the “Effect (%)” value (Potassium Channel HERG) was “NS (NS = No significant response. Significance was taken as ≧30% stimulation or inhibition)”. The “Effect (%)” value (GABAB1B) was “NS (NS = No significant response. Significance was taken as ≧30% stimulation or inhibition)”, the “Effect (%)” value (Adrenergic α1A) was “NS (NS = No significant response. Significance was taken as ≧30% stimulation or inhibition)” and the “Effect (%)” value [7] was “NS (NS = No significant response. Significance was taken as ≧30% stimulation or inhibition)”. For the same compound, the “Effect (%)” value (Adrenergic α2A) was “NS (NS = No significant response. Significance was taken as ≧30% stimulation or inhibition)”, the “Effect (%)” value (Sigma σ2) was “NS (NS = No significant response. Significance was taken as ≧30% stimulation or inhibition)” and the “Effect (%)” value (Vanilloid) was “NS (NS = No significant response. Significance was taken as ≧30% stimulation or inhibition)”. For the same compound, the “Effect (%)” value (Colchicine) was “NS (NS = No significant response. Significance was taken as ≧30% stimulation or inhibition)”, the “Effect (%)” value (Somatostatin sst4) was “NS (NS = No significant response. Significance was taken as ≧30% stimulation or inhibition)” and the “Effect (%)” value (Dopamine D5) was “NS (NS = No significant response. Significance was taken as ≧30% stimulation or inhibition)”.
